Where a name gives a salt, the structure may show the parent alone.
Columns and labels:
[1] = target: JAK2 (Homo sapiens (Human), UniProt O60674); experiment: Inhibition of enzymatic JAK2 kinase activity (TR-FRET); type: biochemical; conditions: read-out: IC50 JAK
Description: The objective of this assay was to screen compounds in a Time-resolved fluorescence resonance energy transfer (TR-FRET) Enzymatic assay method for their potential to inhibit JAK2 (Janus kinase) activity.
TR-FRET assays are homogeneous proximity assays where Eu-labeled antiphosphotyrosine antibody binds to the phosphorylated substrates labeled with Ulight fluorescence acceptor. Eu can transfer energy to Ulight accepter in the complex and the interaction of two dye-labeled binding partners is detected by the energy transfer between a donor and an acceptor dye, and the subsequent light emission by the acceptor dye. The intensity of the light emission is proportional to the level of Ulight peptide phosphorylation.
Two μL of 10% DMSO in blank, substrate control and positive control wells and 2 μL of test compound in test wells was added. Thirteen μL of assay buffer in blank and substrate control wells and 13 μL of Enzyme buffer mix in positive and test wells was added. The reaction mixture was incubated for 30 minutes at RT on a plate shaker. Ultra Light-pGT substrate (5 μL) [poly Glu-Tyr (4:1) labeled with U Light TM dye, a tyrosine kinase substrate] and ATP mix was added to all wells. The reaction plate was incubated for 60 minutes at RT on a plate shaker. The reaction was stopped by adding 40 mM EDTA (10 μL) in buffer. Ten μL of antibody was added to all the wells. The plate was read in a Wallac® 1420 Multilabel Counter Victor 3 instrument (Ex: 340 nm Em: 615 & 665 nm) The following calculations were made:
F@ 665 Value-Buffer blank
F@ 615 Value-Buffer blank
Ratio of F@665/F@615-Substrate Blank
% Activity=(Test Sample/Positive control)*100%
Inhibition=(100−% Activity)

[2] = target: Syk (356-635 amino acids) catalytic domain (Homo sapiens (Human), UniProt P43405); experiment: Inhibition of enzymatic Syk kinase activity (radiometric); type: biochemical; conditions: read-out: IC50 Syk
In short: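 Radiometric filter-binding format: 32P transfer from γ-32P-ATP onto pG4T, scintillation-counted after acid washes of P81 paper. Syk kinase domain (356-635), 0.035–7.5 ng per reaction, was exposed to compound for 30 minutes at room temperature before a 10-minute, 30° C. reaction with ATP (100 μM stock). Inhibition derived from counts with versus without compound.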

Sequence of JAK2 (O60674 808-1132): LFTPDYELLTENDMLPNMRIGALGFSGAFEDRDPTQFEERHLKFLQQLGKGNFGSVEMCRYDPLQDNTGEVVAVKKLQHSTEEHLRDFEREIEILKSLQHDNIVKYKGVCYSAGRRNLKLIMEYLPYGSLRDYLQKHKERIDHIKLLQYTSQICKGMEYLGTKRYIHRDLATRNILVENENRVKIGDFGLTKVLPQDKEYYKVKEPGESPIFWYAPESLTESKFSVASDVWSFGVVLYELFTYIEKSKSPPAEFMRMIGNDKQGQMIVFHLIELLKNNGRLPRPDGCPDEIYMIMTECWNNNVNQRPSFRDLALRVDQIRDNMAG

Structure (SMILES)	IC50 [1]	IC50 [2]
N#CCC1CCN(c2nc(Nc3ccc(N4CCC5(CC4)CC5C(=O)O)nc3)c3c(=O)[nH]ncc3n2)CC1 (stereo not shown) [Example 148, 6-(5-((2-(4-(cyanomethyl)piperidin-1-yl)-5-oxo-5,6-dihydropyrimido[4,5-d]pyridazin-4-yl)amino)pyridin-2-yl)-6-azaspiro[2.5]octane-1-carboxylic acid]	< 50 nM	< 50 nM
O=c1[nH]ncc2nc(N3CCCCCC3)nc(Nc3ccc(N4CCN(CCCO)CC4)cc3)c12 [Example 260, 2-(azepan-1-yl)-4-((4-(4-(3-hydroxypropyl)piperazin-1-yl)phenyl)amino)pyrimido[4,5-d]pyridazin-5(6H)-one]	< 50 nM	< 50 nM
N#CCC1CCN(c2nc(Nc3ccc(N4CCC(CCF)CC4)cc3)c3c(=O)[nH]ncc3n2)CC1 [Example 299, 2-(1-(4-((4-(4-(2-fluoroethyl)piperidin-1-yl)phenyl)amino)-5-oxo-5,6-dihydropyrimido[4,5-d]pyridazin-2-yl)piperidin-4-yl)acetonitrile]	< 50 nM	< 50 nM
CC(C)(O)C1CCN(c2ccc(Nc3nc(N4CCCCCC4)nc4cn[nH]c(=O)c34)cc2)CC1 [Example 139, 2-(azepan-1-yl)-4-((4-(4-(2-hydroxypropan-2-yl)piperidin-1-yl)phenyl)amino)pyrimido[4,5-d]pyridazin-5(6H)-one]	< 10 nM	< 50 nM
N#CCC1CCN(c2nc(Nc3ccc(CCCO)cc3)c3c(=O)[nH]ncc3n2)CC1 [Example 309, 2-(1-(4-((4-(3-hydroxypropyl)phenyl)amino)-5-oxo-5,6-dihydropyrimido[4,5-d]pyridazin-2-yl)piperidin-4-yl) acetonitrile]	< 50 nM	< 50 nM
CC(C)(C#N)C1CCN(c2nc(Nc3ccc(N4CCC(CC(=O)O)CC4)cc3)c3c(=O)[nH]ncc3n2)CC1 [Example 100, 2-(1-(4-((2-(4-(2-cyanopropan-2-yl)piperidin-1-yl)-5-oxo-5,6-dihydropyrimido[4,5-d]pyridazin-4-yl)amino)phenyl)piperidin-4-yl)acetic acid]	< 50 nM	< 50 nM
CN(C)CCOc1ccc(Nc2nc(N3CCCCCC3)nc3cn[nH]c(=O)c23)cc1 [Example 167, 2-(azepan-1-yl)-4-((4-(2-(dimethylamino)ethoxy)phenyl)amino)pyrimido[4,5-d]pyridazin-5(6H)-one]	< 10 nM	< 50 nM
O=c1[nH]ncc2nc(N3CCCCCC3)nc(Nc3ccc(N4CCCC(CO)C4)cc3)c12 (stereo not shown) [Example 285, 2-(azepan-1-yl)-4-((4-(3-(hydroxymethyl)piperidin-1-yl)phenyl)amino) pyrimido[4,5-d]pyridazin-5(6H)-one]	< 50 nM	< 50 nM
O=c1[nH]ncc2nc(N3CCCCCC3)nc(Nc3ccc(OCCC4CCNCC4)cc3)c12 [Example 168, 2-(azepan-1-yl)-4-((4-(2-(piperidin-4-yl)ethoxy)phenyl)amino)pyrimido[4,5-d]pyridazin-5(6H)-one]	< 50 nM	< 50 nM
N#CCN1CCN(c2ccc(Nc3nc(N4CCCCCC4)nc4cn[nH]c(=O)c34)cc2)CC1 [Example 206, 2-(4-(4-((2-(azepan-1-yl)-5-oxo-5,6-dihydropyrimido[4,5-d]pyridazin-4-yl)amino)phenyl)piperazin-1-yl) acetonitrile]	< 10 nM	< 50 nM
CN1CCN(C(=O)COc2ccc(Nc3nc(N4CCC(CC#N)CC4)nc4cn[nH]c(=O)c34)cc2)CC1 [Example 271, 2-(1-(4-((4-(2-(4-methylpiperazin-1-yl)-2-oxoethoxy)phenyl)amino)-5-oxo-5,6-dihydropyrimido[4,5-d]pyridazin-2-yl)piperidin-4-yl)acetonitrile]	< 50 nM	< 10 nM
O=c1[nH]ncc2nc(N3CCCCCC3)nc(Nc3ccc(CCO)cc3)c12 [Example 322, 2-(azepan-1-yl)-4-((4-(2-hydroxyethyl)phenyl)amino)pyrimido[4,5-d]pyridazin-5(6H)-one]	< 10 nM	< 50 nM
O=C(O)C1CC12CCN(c1ccc(Nc3nc(C4CCCCC4)nc4cn[nH]c(=O)c34)cc1)CC2 (stereo not shown) [Example 79, 6-(4-((2-cyclohexyl-5-oxo-5,6-dihydropyrimido[4,5-d]pyridazin-4-yl)amino)phenyl)-6-azaspiro[2.5]octane-1-carboxylic acid]	< 10 nM	< 50 nM
N#CCC1CCN(c2nc(Nc3ccc4[nH]nnc4c3)c3c(=O)[nH]ncc3n2)CC1 [Example 335, 2-(1-(4-((1H-benzo[d][1,2,3]triazol-5-yl)amino)-5-oxo-5,6-dihydropyrimido[4,5-d]pyridazin-2-yl)piperidin-4-yl) acetonitrile]	< 50 nM	< 50 nM
O=c1[nH]ncc2nc(-c3ccccc3)nc(Nc3ccc(CN4CCC5(CC4)COC5)cc3)c12 [Example 23, 4-(4-(2-oxa-7-azaspiro[3.5]nonan-7-ylmethyl)phenylamino)-2-phenylpyrimido[4,5-d]pyridazin-5(6H)-one]	< 100 nM	< 50 nM
O=C(O)CC1CCN(CCCOc2ccc(Nc3nc(N4CCCCCC4)nc4cn[nH]c(=O)c34)cc2)CC1 [Example 126, 2-(1-(3-(4-((2-(azepan-1-yl)-5-oxo-5,6-dihydropyrimido[4,5-d]pyridazin-4-yl)amino)phenoxy)propyl)piperidin-4-yl) acetic acid]	< 50 nM	< 100 nM
COc1ccccc1-c1nc(Nc2ccc(CN3CCNCC3)cc2)c2c(=O)[nH]ncc2n1 [Example 36, 2-(2-methoxyphenyl)-4-(4-(piperazin-1-ylmethyl)phenylamino)pyrimido[4,5-d]pyridazin-5(6H)-one hydrochloride]	< 100 nM	> 100 nM
O=C(O)CN1CCC(c2ccc(Nc3nc(-c4ccccc4)nc4cn[nH]c(=O)c34)cc2)CC1 [Example 86, 2-(4-(4-((5-oxo-2-phenyl-5,6-dihydropyrimido[4,5-d]pyridazin-4-yl)amino)phenyl)piperidin-1-yl)acetic acid]	< 50 nM	< 50 nM
N#CCC1CCN(c2nc(Nc3ccc(CCO)cc3)c3c(=O)[nH]ncc3n2)CC1 [Example 323, 2-(1-(4-((4-(2-hydroxyethyl)phenyl)amino)-5-oxo-5,6-dihydropyrimido[4,5-d]pyridazin-2-yl)piperidin-4-yl) acetonitrile]	< 50 nM	< 50 nM
NC(=O)CC1CCN(c2ccc(Nc3nc(N4CCCCCC4)nc4cn[nH]c(=O)c34)cc2)CC1 [Example 105, 2-(1-(4-((2-(azepan-1-yl)-5-oxo-5,6-dihydropyrimido[4,5-d]pyridazin-4-yl)amino)phenyl)piperidin-4-yl)acetamide]	< 10 nM	< 10 nM
N#CCC1CCN(c2ccc(Nc3nc(N4CCCCCC4)nc4cn[nH]c(=O)c34)cc2)CC1 [Example 80, 2-(1-(4-((2-(azepan-1-yl)-5-oxo-5,6-dihydropyrimido[4,5-d]pyridazin-4-yl)amino)phenyl)piperidin-4-yl)acetonitrile]	< 10 nM	< 50 nM
O=c1[nH]ncc2nc(N3CCC4(CC3)CC4)nc(Nc3ccc(N4CCOCC4)cc3)c12 [Example 18, 4-(4-morpholinophenylamino)-2-(6-azaspiro[2.5]octan-6-yl)pyrimido[4,5-d]pyridazin-5(6H)-one]	< 50 nM	> 100 nM
O=c1[nH]ncc2nc(N3CCCCCC3)nc(Nc3ccc(OCCN4CCNCC4)nc3)c12 [Example 182, 2-(azepan-1-yl)-4-((6-(2-(piperazin-1-yl)ethoxy)pyridin-3-yl)amino)pyrimido[4,5-d]pyridazin-5(6H)-one]	< 10 nM	< 100 nM
N#CCC1CCN(c2nc(Nc3ccc(N4CCCC(CCO)C4)cc3)c3c(=O)[nH]ncc3n2)CC1 (stereo not shown) [Example 286, 2-(1-(4-((4-(3-(2-hydroxyethyl)piperidin-1-yl)phenyl)amino)-5-oxo-5,6-dihydropyrimido[4,5-d]pyridazin-2-yl)piperidin-4-yl)acetonitrile]	< 50 nM	< 50 nM
O=c1[nH]ncc2nc(N3CCCCCC3)nc(Nc3ccc(N4CCCC(O)C4)cc3)c12 (stereo not shown) [Example 281, 2-(azepan-1-yl)-4-((4-(3-hydroxypiperidin-1-yl)phenyl)amino) pyrimido[4,5-d]pyridazin-5(6H)-one]	< 10 nM	< 50 nM
O=c1[nH]ncc2nc(N3CCNCC3)nc(Nc3ccc(CN4CCNCC4)cc3)c12 [Example 32, 2-(piperazin-1-yl)-4-(4-(piperazin-1-ylmethyl)phenylamino)pyrimido[4,5-d]pyridazin-5(6H)-one dihydrochloride]	> 100 nM	< 100 nM
